The source of these data is PubChem BioAssay (NCI).

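Five concentrations, 48 hours, 96-well plates. Definition used: TGI = concentration required for complete inhibition of growth.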 Some results are limits rather than exact numbers.

Among the test systems are PC-3 prostate; NCI-H226 lung; EKVX NSCLC; MCF7 breast; NCI-H23 lung; MDA-MB-231 breast; NCI-H522 lung; SF-268 CNS; HOP-92 NSCLC; CAKI-1 renal; ACHN renal; OVCAR-5 ovarian; MDA-N; T-47D breast; HCT-15 colon; HOP-62 NSCLC; NCI-H460 lung; MALME-3M melanoma.
Experiment in all cases: NCI tumour cell line growth inhibition, 48 h

As for `NC1CCN(c2nc3ccccc3c3c2CCCC3)CC1`, the TGI in the assay on PC-3 prostate was determined as 20.4 µM; with NCI-H226 lung, 24.3 µM; in the assay on EKVX NSCLC, 21.4 µM; in the assay on MCF7 breast, 8.6 µM; with NCI-H23 lung, 28.2 µM; in the assay with MDA-MB-231 breast it was 12.8 µM. For the same compound, the TGI turned out to be 19.3 µM in the assay with NCI-H522 lung; 33 µM in the assay on SF-268 CNS; 17.2 µM with HOP-92 NSCLC; 19.1 µM in the assay with CAKI-1 renal; 22.4 µM with ACHN renal; 19 µM with OVCAR-5 ovarian. The TGI in the assay with MDA-N was found to be 9.6 µM; in the assay on T-47D breast, 7.29 µM; in the assay with HCT-15 colon, 17.7 µM; with HOP-62 NSCLC it was 35.1 µM; with NCI-H460 lung it was 13.5 µM; in the assay with MALME-3M melanoma, 19.8 µM.
On to `Cc1cccc2c(N)c3cccc(C(=O)NCC[N+](C)(C)Cc4ccccc4[N+](=O)[O-])c3nc12`, for which the TGI in the assay on PC-3 prostate was 45.2 µM; in the assay with NCI-H226 lung, above 100 µM; in the assay with EKVX NSCLC, above 100 µM; in the assay with MCF7 breast it was above 100 µM; in the assay with NCI-H23 lung, 14.1 µM; in the assay with MDA-MB-231 breast it was above 55.6 µM. Moreover, the TGI is 18.5 µM in the assay on NCI-H522 lung; above 35.2 µM in the assay on SF-268 CNS; 49.5 µM in the assay on HOP-92 NSCLC; above 100 µM in the assay with CAKI-1 renal; 13.9 µM with ACHN renal; 60.2 µM with OVCAR-5 ovarian. Besides, the TGI with MDA-N was above 41.4 µM; with T-47D breast it was above 100 µM; in the assay on HCT-15 colon, above 100 µM; with HOP-62 NSCLC, above 41.4 µM; in the assay with NCI-H460 lung it was 16 µM; in the assay on MALME-3M melanoma it was 25.8 µM.
For the compound `C/C(O)=C(/C=N/C(=S)Nc1ccccc1)C(=O)Nc1ccccc1C`, the TGI in the assay with PC-3 prostate, in the assay on NCI-H226 lung, with EKVX NSCLC, with MCF7 breast, in the assay on NCI-H23 lung and with MDA-MB-231 breast was above 100 µM in each case. Further, the TGI in the assay on NCI-H522 lung, in the assay with SF-268 CNS, with HOP-92 NSCLC, with CAKI-1 renal, with ACHN renal and in the assay with OVCAR-5 ovarian was above 100 µM each time. Further, the TGI in the assay with MDA-N, in the assay on T-47D breast, with HCT-15 colon, in the assay with HOP-62 NSCLC, with NCI-H460 lung and in the assay with MALME-3M melanoma was above 100 µM in each case.
In the case of `C/C(=C/CC[C@](C)(OC1OC(CO)C(O)C(O)C1O)[C@H]1CC[C@]2(C)[C@@H]1CC[C@@H]1[C@@]3(C)CC[C@H](O)C(C)(C)[C@@H]3C[C@H](O)[C@]12CO)CO` (stereo partly specified), the TGI with PC-3 prostate, with NCI-H226 lung, with EKVX NSCLC, in the assay on MCF7 breast, in the assay with NCI-H23 lung and with MDA-MB-231 breast was above 100 µM each time. In addition, the TGI in the assay with NCI-H522 lung, in the assay with SF-268 CNS, in the assay on HOP-92 NSCLC, with CAKI-1 renal, in the assay with ACHN renal and with OVCAR-5 ovarian was above 100 µM each time. In addition, the TGI with MDA-N, in the assay with T-47D breast, in the assay on HCT-15 colon, in the assay on HOP-62 NSCLC, in the assay on NCI-H460 lung and in the assay with MALME-3M melanoma was above 100 µM in each case.
Turning to `O=c1c2ccccc2n2c(-c3ccccc3O)nnc2n1-c1ccccc1`, the TGI in the assay with PC-3 prostate, in the assay on NCI-H226 lung, in the assay on EKVX NSCLC, in the assay with MCF7 breast, in the assay with NCI-H23 lung and with MDA-MB-231 breast was above 100 µM throughout. Also, the TGI with NCI-H522 lung, with SF-268 CNS, in the assay on HOP-92 NSCLC, in the assay with CAKI-1 renal, with ACHN renal and in the assay with OVCAR-5 ovarian was above 100 µM throughout. For the same compound, the TGI with MDA-N, in the assay with T-47D breast, with HCT-15 colon, in the assay with HOP-62 NSCLC, in the assay with NCI-H460 lung and in the assay with MALME-3M melanoma was above 100 µM throughout.
Take `C/C(=N\O)c1ccc(OCc2cc(C(F)(F)F)cc(C(F)(F)F)c2)cc1`: the TGI in the assay on PC-3 prostate, in the assay on NCI-H226 lung, with EKVX NSCLC, in the assay with MCF7 breast, in the assay with NCI-H23 lung and in the assay on MDA-MB-231 breast was above 100 µM each time. For the same compound, the TGI in the assay with NCI-H522 lung, in the assay on SF-268 CNS, in the assay with HOP-92 NSCLC, in the assay with CAKI-1 renal, with ACHN renal and in the assay on OVCAR-5 ovarian was above 100 µM in each case. For the same compound, the TGI is above 100 µM in the assay on MDA-N; above 100 µM with T-47D breast; above 100 µM in the assay with HCT-15 colon; above 100 µM in the assay with HOP-62 NSCLC; 69.1 µM with NCI-H460 lung; above 100 µM with MALME-3M melanoma.
As to `O=C1N[C@H]2C(=O)c3c(Br)sc(Br)c3[C@H]2O1`, the TGI in the assay with PC-3 prostate was 16.4 µM; in the assay on NCI-H226 lung it was 34.6 µM; in the assay on EKVX NSCLC it was 13 µM; in the assay with MCF7 breast it was 25.4 µM; with NCI-H23 lung, 17.7 µM; in the assay with MDA-MB-231 breast, 22.4 µM. In addition, the TGI turned out to be 3.22 µM in the assay on NCI-H522 lung; 14.2 µM in the assay with SF-268 CNS; 28.9 µM with HOP-92 NSCLC; 9.81 µM in the assay on CAKI-1 renal; 18.1 µM in the assay on ACHN renal; 34.3 µM with OVCAR-5 ovarian. For the same compound, the TGI with MDA-N was determined as 20.1 µM; with T-47D breast it was 55 µM; with HCT-15 colon it was 4 µM; with HOP-62 NSCLC it was 44.5 µM; in the assay on NCI-H460 lung, 35 µM; in the assay on MALME-3M melanoma, 11.3 µM.
